Laboratory results from PubChem BioAssay (NCI).
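Abbreviation: GI50, concentration required for 50% inhibition of growth. At the TGI there is no net growth.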

Tests used:
Experiment in all cases: NCI-60 cell line screen, 384-well format
CCRF-CEM leukemia = tested on: CCRF-CEM leukemia
COLO 205 colon = tested on: COLO 205 colon
HCT-116 colon = tested on: HCT-116 colon
LOX IMVI melanoma = tested on: LOX IMVI melanoma
MCF7 breast = tested on: MCF7 breast
NCI-H23 lung = tested on: NCI-H23 lung
NCI-H322M lung = tested on: NCI-H322M lung
NCI-H522 lung = tested on: NCI-H522 lung
SF-295 CNS = tested on: SF-295 CNS
SF-539 CNS = tested on: SF-539 CNS
SK-MEL-28 melanoma = tested on: SK-MEL-28 melanoma
SR leukemia = tested on: SR leukemia
U251 glioblastoma = tested on: U251 glioblastoma

Work on COc1cc2c(Nc3cc(Cl)c(OC)c(Cl)c3)c(C#N)cnc2cc1OCCCN1CCN(C)CC1 yielded a GI50 (CCRF-CEM leukemia) of 0.239 µM, a TGI (CCRF-CEM leukemia) of 0.486 µM and a GI50 (COLO 205 colon) of 0.765 µM. It also gave a TGI (COLO 205 colon) of 2.05 µM, a GI50 (HCT-116 colon) of 0.329 µM and a TGI (HCT-116 colon) of 1.2 µM. The GI50 (LOX IMVI melanoma) was 1.23 µM, the TGI (LOX IMVI melanoma) was 2.49 µM and the GI50 (MCF7 breast) was 0.451 µM. It also gave a TGI (MCF7 breast) of 1.86 µM, a GI50 (NCI-H23 lung) of 0.401 µM and a TGI (NCI-H23 lung) of 1.48 µM. For the same molecule, the GI50 (NCI-H322M lung) was 0.234 µM, the TGI (NCI-H322M lung) was 1.11 µM and the GI50 (NCI-H522 lung) was 0.0477 µM. For the same molecule, the TGI (NCI-H522 lung) was 0.234 µM, the GI50 (SF-295 CNS) was 0.909 µM and the TGI (SF-295 CNS) was 2.15 µM. It also gave a GI50 (SF-539 CNS) of 0.222 µM, a TGI (SF-539 CNS) of 0.484 µM and a GI50 (SK-MEL-28 melanoma) of 1.44 µM. It also gave a TGI (SK-MEL-28 melanoma) of 2.8 µM, a GI50 (SR leukemia) of 0.195 µM and a TGI (SR leukemia) of 0.377 µM. The GI50 (U251 glioblastoma) was 1.24 µM and the TGI (U251 glioblastoma) was 2.51 µM.
